# Reference: publication PMC11475281, “A Novel Liver Cancer-Selective Histone Deacetylase Inhibitor Is Effective against Hepatocellular Carcinoma and Induces Durable Responses with Immunotherapy” (ACS Pharmacology & Translational Science, 2024)
# Read-outs that look alike come from different tables or passages of the source.
# How the values were obtained:
# Hep-G2 cells [1] = test: Immunoblotting of PD-L1 and PD-1 expression; format: cell-based, human; settings: 24 h, SAHA 5 and 10 μM, STR-V-53 10 and 20 μM
# Description: (§1) Figure 3 Effects of STR-V-53 on intracellular markers of HDAC inhibition, antitumor immune response, and apoptosis. (a) STR-V-53 upregulates the levels of acetylated H4 and tubulin in Hep-G2 cells. Hep-G2 cells were treated with DMSO or 0.1% DMSO solution of SAHA (1.25 μM) and STR-V-53 (1.25 μM, 2.5 μM). Cells were treated for 5 h before lysis. Data are from two independent experiments. (b) STR-V-53 upregulates PD-L1 and downregulates PD-1 expressions in Hep-G2 cells. Cells were treated with DMSO or 0.1% DMSO solution of SAHA (5 μM and 10 μM) and STR-V-53 (10 and 20 μM) for 24 h. (c) STR-V-53 and SAHA caused upregulation of the levels of CD54 in the Hep-G2 cell line. Cells were treated with DMSO or 0.1% DMSO solution of SAHA (5 and 10 μM) and STR-V-53 (5, 10, and 20 μM) for 24 h. […] Cells were treated with DMSO or 0.1% DMSO solution of SAHA (5 μM) and STR-V-53 (10 and 20 μM).
# One of the consequences of histone deacetylase inhibition is the alteration of tumor immunogenicity in favor of enhanced antitumor immune responses.[28],[29] Specifically, HDACi robustly upregulates PD-L1 in human and murine cell lines and patient tumors.[30],[31] To investigate the effects of our glycosylated HDACi on immune checkpoint molecules, we used immunoblotting to probe for the expression levels of PD-L1 and PD-1 in Hep-G2 cells incubated with lead compound STR-V-53 for 24 h. We used SAHA and DMSO as positive and negative controls, respectively.
# Hep-G2 cells [2] = test: GLUT-2 uptake experiment (phloretin blockade, MTS); format: cell-based; settings: Homo sapiens, read-out: Hep-G2 Cell Viability %; for viability at 6.25 µM: HepG2, 6.25 μM; for viability at 12.5 µM: HepG2, 12.5 μM; for viability at 1.25 µM: HepG2, 1.25 μM; for viability at 2.5 µM: HepG2, 2.5 μM
# Description: We observed that Ph selectively mitigated the cytotoxicity of STR-V-53 against the Hep-G2 cell line with no apparent effect on the cytotoxicity of SAHA (Figure 2a). […] This matches our expectation because Hep-G2 cells overexpress GLUT-2 while VERO has limited expression of GLUT-2.[26]
# MIDI 4-20% gel (Biorad, cat. 5671093) and ran at 150 V for 70 min. The gel was then transferred onto the Turbo PDVF membrane (Biorad, 1704273), and after blocking with 5% BSA for 1-2 h, the membrane was incubated overnight with primary antibodies Ac-Tubulin (sc-23950), Ac-H4 (sc-515319) (Santa Cruz Biotechnology), caspase 3 and clv-Caspase 3 (Cell signaling Technology), anti-p21WAF/CIP (ThermoFisher), anti-GAPDH (Aldrich-Sigma). On the second day, the membrane was washed with TBST for 3x5 min; a secondary antibody (LiCOR) was added, and the membrane was incubated with agitation for 1 h. After washing with TBS-T 3x5 mins, bands were quantified using the Odyssey CLx Image system.
# (§2) Hep-G2 or VERO cells were seeded (2500 to 4,000 counts/well) into 96-well plates, in which each well contains 100 µL media. The cells were cultured overnight in the respective media described in the cell culture section above. On day 2, the cells were treated with 25 µM Phloretin for 24 h. On day 3, 200x stock solutions of STR-V-53 and SAHA were used to prepare 2x treatment solution by adding 1% stock solution in the media. Then, without removal of the media in 96-well plates, the same volumes of drug as the media were added directly to the wells with gentle pipetting to reach 1x drug solution with 25 µM Ph. After another 72 h, the media were removed, and new media (100 µL) added to the wells. MTS solution (20 µL) was added to each well. After 2.5-4 h incubation, the plates were read using a multiplate reader at 490 nm. The data were processed using GraphPad Prism 8.
# Hep-G2 cells (5*106) were seeded in a 10 cm plate with MEM and incubated until 50% confluency before drug treatment. Cells were treated, with DMSO (control) and DMSO solutions of SAHA (5 µM) and STR-V-53 (15 µM) such that the final DMSO level was 0.1%,
# GLUT-2 = GLUT-2 uptake experiment (phloretin blockade, MTS); format: cell-based; settings: African green monkey, VERO cells, with phloretin 25 µM, Pre-treated with 25 μM Ph, read-out: VERO Cell Viability %
# Description: (§3) We observed that Ph selectively mitigated the cytotoxicity of STR-V-53 against the Hep-G2 cell line with no apparent effect on the cytotoxicity of SAHA (Figure 2a). […] This matches our expectation because Hep-G2 cells overexpress GLUT-2 while VERO has limited expression of GLUT-2.[26] […]
# as §2, with “8. […]” for “8.”
# [3] = GLUT-2 uptake experiment (phloretin blockade, MTS); format: cell-based; settings: African green monkey, VERO cells, No addition of Ph, read-out: VERO Cell Viability %
# Description: as §3
# as §2, with “8. […]” for “8.”
# Hep-G2 cells [4] = test: Immunoblotting of CD54 (ICAM-1) expression; format: cell-based, human; settings: 24 h, STR-V-53 at IC50 and 2× IC50
# Description: as §1
# HDACi regulates the expression levels of other tumor antigens such as CD40, CD54 (ICAM-1), CD80, and CD86 in tumor cells.[32]−[35] More specifically, the repression of CD54 expression is another strategy tumors use to escape the immune response.[36] […] To investigate the effect of our glycosylated HDACi on the expression of CD54, we incubated Hep-G2 cells with STR-V-53 at IC50 and 2× IC50 for 24 h. We used immunoblotting to determine the effect of this treatment on CD54 expression. […]
# Description for RIL-175 murine HCC: (d) Body weight change of tumor-bearing mice in the four treatment groups.
# Next, we evaluated the in vivo efficacy of STR-V-53 alone or combined with an anti-PD1
# antibody in a p53-null murine HCC model.
# into the subcapsular region of the liver parenchyma in C57Bl/6 mice, and tumor growth was
# monitored by high-frequency ultrasonography. When tumors reached ~5 mm in diameter, mice
# were randomly assigned to one of the four treatment groups (n=12 mice): DMA/ CRH/Water
# (10%/20%/70%) (control), STR-V-53 (25mg/kg daily by i.p. for 3 weeks), anti-PD1 antibody
# (10mg/kg thrice a week for 3 weeks), or combination of STR-V-53 and anti-PD1 antibody. Anti-
# PD1 antibody treatment was administered i.p. for a total of 9 injections. Tumor growth and body
# weight were measured every three days by ultrasound imaging, and tumor size was calculated as
# 0.5×length×width2. Per protocol, moribund status was used as the endpoint, and moribundity
# the starting date, body condition score of more than 2, and tumor size of more than 15 mm in
# diameter. Data were processed using GraphPad Prism 8, and survival analysis was performed
structure (smiles),measurement,setting,value
O=C(CCCCCCn1cc(-c2ccc(O[C@H]3O[C@H](CO)[C@@H](O)[C@H](O)[C@H]3O)cc2)nn1)NO [STR-V-53],PD-1 expression level,Hep-G2 cells [1],downregulate
same,PD-L1 expression level,Hep-G2 cells [1],upregulate
same,viability at 6.25 µM,Hep-G2 cells [2]; No addition of Ph,104%
same,viability at 6.25 µM,Hep-G2 cells [2]; Pre-treated with 25 μM Ph,103%
same,viability at 12.5 µM,Hep-G2 cells [2]; No addition of Ph,25.4%
same,viability at 12.5 µM,Hep-G2 cells [2]; Pre-treated with 25 μM Ph,70.3%
same,"viability at 72 h, 75 µM",GLUT-2; 75μM,100%
same,"viability at 72 h, 100 µM",GLUT-2; 100μM,75.9%
same,"viability at 72 h, 75 µM",[3]; 75μM,98.4%
same,"viability at 72 h, 100 µM",[3]; 100μM,77.8%
same,CD54 expression,Hep-G2 cells [4],upregulated
same,Body weight change of tumor-bearing mice (weight loss),"RIL-175 murine HCC; RIL-175 model, 12 mice per group",4/12
same,Tumor growth,"RIL-175 murine HCC; RIL-175 model, n = 12",minor effect on tumor growth
same,Overall survival (Kaplan–Meier),"RIL-175 murine HCC; RIL-175 model, n = 12, vs IgG control",no impact on survival
same,Overt toxicity during the treatment period,RIL-175 murine HCC; RIL-175 tumor-bearing mice,no significant overt toxicity
"O=C(CCCCCCC(=O)Nc1ccccc1)NO [SAHA, vorinostat, reference compound]",PD-1 expression level,Hep-G2 cells [1],downregulate
same,PD-L1 expression level,Hep-G2 cells [1],upregulate
same,viability at 1.25 µM,Hep-G2 cells [2]; No addition of Ph,96.2%
same,viability at 1.25 µM,Hep-G2 cells [2]; Pre-treated with 25 μM Ph,84%
same,viability at 2.5 µM,Hep-G2 cells [2]; No addition of Ph,31.2%
same,viability at 2.5 µM,Hep-G2 cells [2]; Pre-treated with 25 μM Ph,41.8%
same,"viability at 72 h, 6.5 µM",GLUT-2; 6.5 μM,87.2%
same,"viability at 72 h, 12.5 µM",GLUT-2; 12.5 μM,7.5%
same,"viability at 72 h, 6.5 µM",[3]; 6.5 μM,97.7%
same,"viability at 72 h, 12.5 µM",[3]; 12.5 μM,17.1%
same,CD54 expression,Hep-G2 cells [4],upregulated
